Tests used:
[1] = Marble burying (mice); format: in vivo, mouse; settings: 15 min test, vehicle mean 11 of 20
Experimental: Marble Burying (Mice) After a 1 h period of acclimation to the testing room, the mice (n=6-10 per group) were injected i.p. with saline, EDDP, EMDP, or CDP at the doses indicated. Ten minutes later, the mice were placed individually in small cages (26×20×14 cm), in which twenty marbles had been equally distributed on top of mouse bedding (5-cm deep), and a wire lid was placed on top of the cage. Mice were left undisturbed for 15 min, after which time the number of buried marbles (i.e., those covered by bedding three-quarters or more) was counted.

[2] = Elevated plus maze (rats); format: in vivo, rat
Experimental: Elevated Plus Maze (Rats) Plus maze testing was performed and scored as previously described (Forcelli and Heinrichs, 2008; Forcelli et al., 2012), in a standard grey rat elevated plus maze (50 cm arms, elevated 40 cm off the ground [Stoelting Co., Wood Dale, Ill.]). Testing was conducted under 20 lux red light, 30 min after drug administration. The number of arm entries and time spent in open and closed arms were recorded using ANYmaze (Stoelting Co, Wood Dale, Ill.).

[3] = test system: opiate receptors; test: [3H]-naloxone binding competition in rat forebrain membranes
[4] = Eyelid ptosis assessment (rats); format: in vivo, rat
Experimental: Ptosis was assessed as previously described (Rubin et al., 1957). Each animal was photographed while gently restrained by hand. Photographs were analyzed by a treatment blind observer (P.A.F.) and assigned a score of 0 (no ptosis, eye completely open), 1 (mild, eye partially closed), 2 (moderate, eye half closed), 3 (severe, eye […] closed), or 4 (complete, eye completely closed).

[5] = biological target: T1, human α3β4 nAChRs (Homo sapiens, UniProt P30926+P32297); test: 86Rb+ efflux assay, inhibition of nicotine-stimulated efflux, α3β4 nAChRs; format: cell-based
T1 construct: expressed in transfected cells
Experimental: Stable cell lines and ^86Rb^+ efflux Assay. […] These cell lines were maintained in minimum essential medium (MEM) supplemented with 10% fetal bovine serum, 100 units/mL penicillin G, […] and selective antibiotics at 37° C. with 5% CO2 in a humidified incubator. Tissue culture medium and antibiotics were obtained from Invitrogen Corporation (Carlsbad, Calif.), unless otherwise stated. Fetal bovine serum was obtained from Gemini Bio-Products (Woodland, Calif.).
In brief, cells were plated into 24-well plates coated with poly-D-lysine. […] The cells were then incubated in growth medium (0.5 mL/well) containing ^86Rb^+ (2 μCi/mL) for 4 hour at 37° C. The loading mixture was then aspirated, and the cells were washed four times with 1 mL buffer (15 mM HEPES, 140 mM NaCl, 2 mM KCl, 1 mM MgSO4, 1.8 mM CaCl2), 11 mM Glucose, pH 7.4). One mL of buffer with or without compounds to be tested was then added to each well. After incubation for 2 min, the assay buffer was collected for measurements of ^86Rb^+ released from the cells. Cells were then lysed by adding 1 mL of 100 mM NaOH to each well, and the lysate was collected for determination of the amount of ^86Rb^+ that was in the cells at the end of the efflux assay. Radioactivity of assay samples and lysates was measured by liquid scintillation counting. Total loading (cpm) was calculated as the sum of the assay sample and the lysate of each well, and the amount of ^86Rb^+ efflux was expressed as a percentage of ^86Rb^+ loaded. Stimulated ^86Rb^+ efflux was defined as the difference between efflux in the presence and absence of nicotine. […] IC50 values were determined by nonlinear least-squares regression analyses (GraphPad. San Diego, Calif.).

[6] = biological target: rat α3β4 nAChR channels (Rattus norvegicus, UniProt P04757+P12392); settings: 2001, cited from earlier work
[7] = Forced swim test (rats); format: in vivo, rat; settings: three doses, 5 min test, vehicle 81 s
Experimental: Forced Swim Test (FST; Rats) The FST in rats was conducted as previously described (Porsolt et al., 2001). On day 1, rats were placed in a cylindrical chamber (20 cm in diameter, 46 cm deep) filled to a height of 38 cm with room temperature water for 15 min. After the completion of this pre-exposure test, animals were removed from the apparatus, dried with towels and placed under a heat lamp for ˜30 min. […] Animals were treated with these same doses again 20 h and 23 h after the initial dose. Twenty-four h after the pre-exposure, animals were re-introduced to the apparatus and video-recorded for 5 min. Immobility was hand-scored for each video record by a treatment blind observer (P.A.F.) using ANYmaze (Stoelting) to record the data.

[8] = Forced swim test (mice); format: in vivo, mouse; settings: 6 min test
Experimental: Forced Swim Test (FST; Mice) The FST in mice was conducted as previously described [11]. Briefly, 10 min following i.p. injection of saline, EDDP or EMDP, mice were placed in Plexiglas cylinders filled with water (25° C.) for 6 min while being videotaped. The forced swim score for the entire 6 min test was assessed using the Cleversystems videotracking system (CleverSys) and confirmed with visual scoring by a trained observer. A mouse was judged to be immobile when making only those movements necessary to keep its head above water.

[9] = Open field locomotor activity (rats); format: in vivo, rat; settings: 5 mg/kg s.c., 30 min after injection
Experimental: Locomotor Activity (Rats) Locomotor activity was measured 30 minutes after sc injection of test compound. Animals were placed in a Plexiglass enclosure (16″×16″×16″, TruScan Arena, Coulbourn Instruments, Whitehall, Pa.) with 770 lux illumination over the center of the arena. Animals were allowed to explore for 20 min, during which total distance traveled was recorded using ANYmaze software (Stoelting Co., Wood Dale, Ill.), as previously described (Forcelli et al., 2012).

[10] = Home cage locomotor activity (mice); format: in vivo, mouse; settings: mice, 0.5, 1, 5, 10 mg/kg i.p., 60 min
Experimental: Locomotor Activity (Mice) Locomotor activity in response to i.p. drug administration was analyzed in a “home cage” activity monitoring system (Med Associates, St. Albans, Vt.), as previously described (Walters and Blendy, 2001; Mackler et al., 2008; Isiegas et al., 2009). Briefly, a novel cage identical to the home cage (28.9 cm×17.8 cm 12 cm) was placed in a photo-beam frame (30 cm×24 cm×8 cm) with sensors arranged in an 8-beam array strip. For dose studies, mice were injected i.p. with saline or drug. Immediately following drug administration, the mice were placed individually in the cages. Beam break data was monitored and recorded for 60 min.

rat α3β4 nAChR channels, sequence (P04757 26-499): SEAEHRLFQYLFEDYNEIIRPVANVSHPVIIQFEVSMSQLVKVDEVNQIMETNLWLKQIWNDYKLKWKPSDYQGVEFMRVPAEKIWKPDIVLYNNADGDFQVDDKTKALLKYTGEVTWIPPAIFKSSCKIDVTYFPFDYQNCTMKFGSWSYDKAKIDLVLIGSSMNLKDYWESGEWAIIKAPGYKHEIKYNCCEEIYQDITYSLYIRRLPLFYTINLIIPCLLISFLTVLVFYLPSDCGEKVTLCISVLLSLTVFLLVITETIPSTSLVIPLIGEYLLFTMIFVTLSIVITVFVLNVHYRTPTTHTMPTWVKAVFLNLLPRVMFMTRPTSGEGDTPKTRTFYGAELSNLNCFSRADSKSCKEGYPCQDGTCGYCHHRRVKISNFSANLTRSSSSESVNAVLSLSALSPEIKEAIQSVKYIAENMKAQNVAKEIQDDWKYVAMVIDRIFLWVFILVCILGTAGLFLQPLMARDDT
rat α3β4 nAChR channels, sequence (P12392 21-495): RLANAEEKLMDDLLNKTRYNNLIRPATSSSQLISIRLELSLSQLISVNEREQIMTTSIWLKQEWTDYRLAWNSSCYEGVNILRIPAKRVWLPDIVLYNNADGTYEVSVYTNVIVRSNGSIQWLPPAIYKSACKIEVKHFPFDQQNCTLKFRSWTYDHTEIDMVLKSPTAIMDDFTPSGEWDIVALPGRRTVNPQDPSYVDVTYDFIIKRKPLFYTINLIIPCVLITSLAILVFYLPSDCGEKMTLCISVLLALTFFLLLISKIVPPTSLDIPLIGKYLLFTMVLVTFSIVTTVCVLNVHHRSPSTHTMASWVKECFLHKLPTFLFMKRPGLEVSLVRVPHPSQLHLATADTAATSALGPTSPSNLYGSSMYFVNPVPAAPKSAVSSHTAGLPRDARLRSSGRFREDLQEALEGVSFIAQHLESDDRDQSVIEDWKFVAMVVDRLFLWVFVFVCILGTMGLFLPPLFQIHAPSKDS
T1 sequence (P32297 32-505): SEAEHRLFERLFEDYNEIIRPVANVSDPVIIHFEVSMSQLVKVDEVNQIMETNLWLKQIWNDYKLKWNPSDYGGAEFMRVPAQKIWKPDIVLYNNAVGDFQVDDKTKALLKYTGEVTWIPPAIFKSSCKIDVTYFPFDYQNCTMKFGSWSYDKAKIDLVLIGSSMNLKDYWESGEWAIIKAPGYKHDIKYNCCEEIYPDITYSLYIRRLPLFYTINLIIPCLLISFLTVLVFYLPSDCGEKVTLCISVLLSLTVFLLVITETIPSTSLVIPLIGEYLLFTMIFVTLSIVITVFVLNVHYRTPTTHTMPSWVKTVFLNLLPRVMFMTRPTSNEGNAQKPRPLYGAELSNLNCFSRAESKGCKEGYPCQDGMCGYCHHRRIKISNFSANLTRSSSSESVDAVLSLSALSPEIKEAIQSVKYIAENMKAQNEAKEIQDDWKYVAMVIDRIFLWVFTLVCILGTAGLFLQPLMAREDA
T1 sequence (P30926 22-498): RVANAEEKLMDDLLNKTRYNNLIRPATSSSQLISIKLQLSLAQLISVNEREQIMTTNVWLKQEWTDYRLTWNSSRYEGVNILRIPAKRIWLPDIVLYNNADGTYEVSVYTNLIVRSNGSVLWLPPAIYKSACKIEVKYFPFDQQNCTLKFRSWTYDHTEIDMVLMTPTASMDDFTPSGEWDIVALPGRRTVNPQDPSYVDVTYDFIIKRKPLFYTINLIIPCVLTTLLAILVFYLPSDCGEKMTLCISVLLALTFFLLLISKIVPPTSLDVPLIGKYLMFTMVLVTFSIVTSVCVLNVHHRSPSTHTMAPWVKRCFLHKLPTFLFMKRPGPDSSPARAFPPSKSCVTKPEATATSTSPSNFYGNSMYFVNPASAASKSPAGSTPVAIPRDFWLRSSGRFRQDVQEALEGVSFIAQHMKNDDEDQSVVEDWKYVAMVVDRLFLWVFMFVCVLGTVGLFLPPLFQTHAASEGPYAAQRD

SMILES: CCC1=NC(C)CC1(c1ccccc1)c1ccccc1 (racemic) [EMDP, 2-ethyl-5-methyl-3,3-diphenyl-1-pyrroline]
- number of marbles buried vs vehicle ([1]; 5 mg/kg i.p.): buried significantly fewer marbles
- number of marbles buried vs vehicle ([1]; 10 mg/kg i.p.): buried significantly fewer marbles
- mean duration in the open arms of the elevated plus maze ([2]; s.c., dose not given, 30 min after drug, vehicle 104 s): 143 s
- percentage of entries made into the open arms of the plus maze ([2]; vs vehicle): the groups did not differ
- latency to first entry in the open arms ([2]; vs vehicle (data not shown)): did not differ as a function of treatment group
- fraction of [3H]-naloxone binding sites competed for ([3]; at a concentration of 100 μM): 60%
- apparent affinity, fold lower than that of methadone ([3]; rat forebrain [3H]-naloxone binding): ~1900 fold
- Ki ([3]; rat forebrain membranes, 2 nM [3H]-naloxone, single-site model): 21 µM
- eyelid ptosis quantified over 3 h ([4]; 20 mg/kg): ptosis was not apparent at any time
- ptosis observed during forced swim tests ([4]; 10 and 20 mg/kg): did not produce ptosis
- potency relative to mecamylamine in blocking human α3β4 nAChRs [5]: half as potent as mecamylamine
- potency relative to mecamylamine in blocking rat α3β4 nAChRs ([6]; Xiao et al): one-sixth as potent
- block of rat α3β4 nAChR channels ([6]; Xiao et al.): potently block
- immobile time in forced swim test vs vehicle ([7]; 10 mg/kg s.c.): reduced immobile time
- immobile time in forced swim test vs vehicle ([7]; 20 mg/kg s.c.): reduced immobile time
- duration of immobility in forced swim test vs vehicle ([8]; 5 mg/kg i.p.): did not affect immobility time
- duration of immobility in forced swim test vs vehicle ([8]; 10 mg/kg i.p.): significantly reduced
- open field locomotor activity [9]: neither EDDP nor EMDP significantly altered
- overall home cage locomotor activity [10]: did not significantly affect

From patent US11278522B2, “Use of methadone metabolites for treatment of anxiety and depression” (Georgetown University, priority 2015, dated 2022)
